Calls of active or inactive are those of the source. The calls are words filed in the database; no cut-off is given here.
Experiments:
[1] = test system: Mus musculus; test: Induction of osteogenesis in BALB/c mouse assessed as increase in Col1a1 gene expression at 5 mg/kg, ip by qRT-PCR analysis; type: functional, organism-based
[2] = test system: Mus musculus; test: Induction of osteogenesis in BALB/c mouse assessed as fold increase in BMP2 gene expression at 5 mg/kg, ip by qRT-PCR analysis; type: functional
[3] = test system: Mus musculus; test: Induction of bone formation in BALB/c mouse model assessed as calvarial bone formation at 1 to 5 mg/kg by double labelling based analysis; type: functional, organism-based; conditions: dose 1-5 mg/kg
[4] = test system: Calvarial osteoblast; test: Induction of osteogenesis in mouse Osteoblast cells assessed as fold increase in RUNX2 gene expression at 1 pM by qRT-PCR analysis; type: functional
[5] = test system: Calvarial osteoblast; test: Induction of osteogenesis in mouse Osteoblast cells assessed as ALP activity at 0.001 to 100 uM measured for 24 hrs; type: functional, cell-based; conditions: dose 0.001-100 µM
[6] = test system: Calvarial osteoblast; test: Cytotoxicity against mouse Osteoblast cells assessed as reduction in cell viability at 0.000001 to 1 uM measured for 24 to 48 hrs by MTT assay; type: toxicity, cell-based; conditions: dose lower 1e-06 µM, time lower 24 hrs, dose upper 1 µM, time upper 48 hrs
[7] = test system: Mus musculus; test: Induction of bone formation in BALB/c mouse model assessed as mineral apposition rate at 1 to 5 mg/kg by double labelling based analysis; type: functional, organism-based; conditions: dose 1-5 mg/kg
[8] = Induction of osteoblast mineralization in mouse Bone marrow cells assessed as increase in mineralized nodule formation at 100 pM replaced with media every 48 hrs for 21 days by Alizarin Red staining-based microscopic analysis; type: functional, Bone marrow cell; conditions: time 21 day
[9] = test system: Calvarial osteoblast; test: Induction of osteoblast differentiation in mouse Osteoblast cells assessed as fold increase in RUNX2 expression at 100 pM by qRT-PCR analysis; type: functional
[10] = test system: Mus musculus; test: Induction of bone formation in BALB/c mouse model assessed as increase in intercortical distance at 1 mg/kg by histopathological analysis; type: functional, organism-based
[11] = test system: Mus musculus; test: Induction of osteogenesis in BALB/c mouse assessed as fold increase in BGLAP gene expression at 5 mg/kg, ip by qRT-PCR analysis; type: functional
[12] = Induction of osteoblast mineralization in mouse Bone marrow cells assessed as increase in mineralized nodule formation at 10 nM replaced with media every 48 hrs for 21 days by Alizarin Red staining-based microscopic analysis; type: functional, Bone marrow cell; conditions: time 21 day
[13] = test system: Calvarial osteoblast; test: Induction of osteogenesis in mouse Osteoblast cells assessed as fold increase in BGLAP expression at 10 nM by qRT-PCR analysis; type: functional
[14] = test system: Mus musculus; test: Induction of osteogenesis in BALB/c mouse assessed as fold increase in Col1a1 gene expression at 5 mg/kg, ip by qRT-PCR analysis; type: functional
[15] = test system: Calvarial osteoblast; test: Induction of osteogenesis in mouse Osteoblast cells assessed as fold increase in BGLAP expression at 1 to 100 pM by qRT-PCR analysis; type: functional; conditions: dose 1-100 pM
[16] = test system: Calvarial osteoblast; test: Induction of osteogenesis in mouse Osteoblast cells assessed as ALP activity at 100 pM measured for 24 to 48 hrs; type: functional, cell-based; conditions: time 24-48 hrs
[17] = test system: Calvarial osteoblast; test: Induction of osteogenesis in mouse Osteoblast cells assessed as ALP activity at 0.001 to 100 uM measured for 24 to 48 hrs; type: functional; conditions: dose 0.001-100 µM, time 24-48 hrs
[18] = test system: Calvarial osteoblast; test: Induction of osteogenesis in mouse Osteoblast cells assessed as ALP activity at 0.001 to 1 uM measured for 48 hrs; type: functional, cell-based; conditions: dose 0.001-1 µM
[19] = test system: Mus musculus; test: Induction of bone formation in BALB/c mouse model assessed as bone formation rate/bone surface at 1 to 5 mg/kg by double labelling based analysis; type: functional, organism-based; conditions: dose 1-5 mg/kg
[20] = test system: Mus musculus; test: Induction of osteogenesis in BALB/c mouse assessed as increase in BGLAP gene expression at 5 mg/kg, ip by qRT-PCR analysis; type: functional, organism-based
[21] = test system: Mus musculus; test: Induction of bone formation in BALB/c mouse model assessed as morphological architecture at 1 mg/kg by histopathological analysis; type: functional, organism-based
[22] = test system: Calvarial osteoblast; test: Induction of osteogenesis in mouse Osteoblast cells assessed as fold increase in BMP2 gene expression at 100 pM by qRT-PCR analysis; type: functional
[23] = test system: Calvarial osteoblast; test: Induction of osteoblast differentiation in mouse calvarial osteoblasts cells assessed as ALP activity at 1 to 10000 pM measured for 7 days; type: functional, cell-based; conditions: dose 1-10000 pM, time 7.0 day
[24] = test system: Calvarial osteoblast; test: Induction of osteogenesis in mouse Osteoblast cells assessed as fold increase in mRNA expression at 1 to 10000 pM by qRT-PCR analysis; type: functional; conditions: dose 1-10000 pM
[25] = test system: Mus musculus; test: Induction of osteogenesis in BALB/c mouse assessed as fold increase in RUNX2 gene expression at 5 mg/kg, ip by qRT-PCR analysis; type: functional
[26] = Upregulation of BMP2 expression in mouse Osteoblast cells assessed as fold increase in phosphorylated p38 level measured at 24 hrs by ELISA analysis; type: functional, Calvarial osteoblast
[27] = test system: Mus musculus; test: Induction of bone formation in BALB/c mouse model assessed as mineralizing surface per bone surface at 1 to 5 mg/kg by double labelling based analysis; type: functional, organism-based; conditions: dose 1-5 mg/kg
[28] = test system: Calvarial osteoblast; test: Induction of osteogenesis in mouse Osteoblast cells assessed as fold increase in ALP expression at 100 pM by qRT-PCR analysis; type: functional
[29] = test system: Calvarial osteoblast; test: Induction of osteogenesis in mouse Osteoblast cells assessed as ALP activity at 0.001 to 100 uM measured for 48 hrs; type: functional, cell-based; conditions: dose 0.001-100 µM
[30] = test system: Calvarial osteoblast; test: Cytotoxicity against mouse Osteoblast cells assessed as reduction in cell viability at 100 uM measured for 24 to 48 hrs by MTT assay; type: toxicity, cell-based; conditions: time 24-48 hrs
[31] = test system: Calvarial osteoblast; test: Induction of osteoblast differentiation in mouse Osteoblast cells assessed as fold increase in BMP2 expression at 100 pM by qRT-PCR analysis; type: functional
[32] = test system: Mus musculus; test: Induction of osteogenesis in BALB/c mouse assessed as increase in RUNX2 gene expression at 5 mg/kg, ip by qRT-PCR analysis; type: functional, organism-based
[33] = test system: Mus musculus; test: Induction of osteogenesis in BALB/c mouse assessed as increase in BMP2 gene expression at 5 mg/kg, ip by qRT-PCR analysis; type: functional, organism-based

In the case of `CCn1c(-c2cc(C)c3c(c2)C(c2c(C)[nH]c4ccccc24)C(C#N)=C(N)O3)nc2ccccc2c1=O` (stereo not drawn), the Activity [1] is reported as “Active”, the “fold change (FC)” value [2] is reported as 6 and the Activity [3] is reported as “Active”. The “fold change (FC)” value [4] was 2, the Activity [5] was “inactive” and the Activity [6] was “Non-Toxic”. The Activity [7] was “Active”, the Activity [8] was 30% and the “fold change (FC)” value [9] was 2.7. For the same compound, the Activity [10] was “Active”, the “fold change (FC)” value [11] was 7 and the Activity [12] was 50%. For the same compound, the “fold change (FC)” value [13] was 4, the “fold change (FC)” value [14] was 10 and the “fold change (FC)” value [15] was 2. The Activity [16] was “Active”, the Activity [17] was 50% and the Activity [18] was “Active”. For the same compound, the Activity [19] was “Active”, the Activity [20] was “Active” and the Activity [21] was “Active”. The “fold change (FC)” value [22] was 3, the Activity [23] was “Active” and the “fold change (FC)” value [24] was 2. The “fold change (FC)” value [25] was 11, the “fold change (FC)” value [26] was 1.5 and the Activity [27] was “Active”. For the same compound, the “fold change (FC)” value [28] was 3, the Activity [29] was “Active” and the Activity [30] was “Toxic”. For the same compound, the “fold change (FC)” value [31] was 2.3, the Activity [32] was “Active” and the Activity [33] was “Active”.

Reference: ChEMBL document CHEMBL5247581, “Design, synthesis and biological evaluation of new quinazolinone-benzopyran-indole hybrid compounds promoting osteogenesis through BMP2 upregulation” (Eur J Med Chem, 2022)
